# Reference: US20250186448A1 (Mezzion Pharma Co., Ltd., priority 2021, published 2025)
# Several values for one entry are separate records, joined by “and”; a condition that tells them apart may be missing. Equal values may be shown once.
# Legend:
# [1] = system: adolescents with Fontan physiology; conditions: phase I/II study, cited from earlier work
# [2] = system: adolescents with Single Ventricle Heart Disease who underwent Fontan palliation; assay: FALD study: circulating biomarkers of heart failure and liver fibrosis (HA, PIIINP, TIMP-1, BNP and others); assay type: in vivo, human; set-up: HA, Post Baseline / TIMP−1, Post Baseline: unit not given beside the values; HA, Change from Baseline / TIMP−1, Change from Baseline / BNP, Change from Baseline: unit not given here; conditions: Cohort U− (udenafil for 52 weeks), individual subject
# From the text: As noted previously, increased liver stiffness can be secondary to hepatic congestion and/or hepatic fibrosis. […] For instance, patients with increased liver stiffness due to hepatic congestion may have increased biomarkers of heart failure (e.g., BNP, NT-proBNP). […] The relative contribution of congestion or fibrosis (as determined by biomarker profiles) to the observed level of liver stiffness may correlate with which therapeutic strategies are likely to be successful in a particular patient. Therefore, in this aim, we sought to determine which circulating biomarkers correlate with measures of liver stiffness and which correlate with a change in liver stiffness with udenafil treatment. We used both a directed approach, with an analysis of candidate biomarkers validated for other disease processes, and a non-directed approach, which identifies novel biomarkers associated with FALD. The FALD study, ClinicalTrials.gov Identifier: NCT03430583, which is incorporated herein by reference in its entirety, was an open-label extension study that integrated with the FUEL Extension Trial. […] Both the U− cohort and the U+ cohort had liver stiffness measured by ultrasound and MR elastography (where available), and ELF biomarkers analyzed, as described above. […] The Enhanced Liver Fibrosis (ELF) scores were based on the serum levels of hyaluronic acid (HA), amino-terminal propeptide of type III collagen (PIIINP), and tissue inhibitor of metalloproteinase-1 (TIMP-1). Testing was performed by the FUEL-OLE Central Laboratory using the serum samples. In accordance with prior studies, we assigned those patients with scores of <7.7 to the no-fibrosis or mild fibrosis group, 7.7-9.8 to the moderate fibrosis group, 9.8-11.3 to the severe fibrosis group, and >11.3 to the cirrhosis group.
smiles,measurement,setting,value
"CCCOc1ccc(S(=O)(=O)NCCC2CCCN2C)cc1-c1nc2c(CCC)nn(C)c2c(=O)[nH]1 (stereo not drawn) [Udenafil, udenafil]",Tolerability,"[1]; adolescents with Fontan physiology, all tested dosing regimens",demonstrated tolerability at all tested dosing regimens
same,"Average serum concentration, compared among dosing regimens",[1]; 87.5 mg twice daily,highest average serum concentration
same,Dose limiting adverse events,[1]; 87.5 mg twice daily,not associated with dose limiting adverse events
same,"BNP, % Change from Baseline",[2],−83.33% and −55.56% and −96.2963% and −33.75% and −25.17% and −20%
same,"BNP, Change from Baseline",[2],−5 and −25 and −26 and −10.7 and −3.7 and −6.5 and −3
same,"HA, % Change from Baseline",[2],−23.28% and −55.89% and −92.1% and −78.47% and 255.6% and 69.68%
same,"HA, Change from Baseline",[2],−10.87 and −67.92 and −82.42 and −137.35 and 54.28 and 27.67 and 3.05
same,"PIIINP, % Change from Baseline",[2],−52.39% and −50.4522% and 5.12% and −50.05% and −15.3% and 66.2%
same,"PIIINP, Change from Baseline",[2],−19.04 and −15.62 and 0.77 and −23.08 and −2.33 and 9.99 and 1.99
same,"TIMP−1, % Change from Baseline",[2],1.424% and 1.608% and 25.82% and −5.136% and 3.739% and 19.54%
same,"TIMP−1, Change from Baseline",[2],2.3 (2×) and 39.4 and −9.8 and 6.2 and 47.1 and 56.3
same,"BNP, Post Baseline",[2]; Post Baseline visit (52 week),1 (2×) and 20 and 21 and 11 and 26 and 3
same,"HA, Post Baseline",[2]; Post Baseline visit (52 week),35.83 and 53.6 and 7.07 and 37.68 and 75.52 and 67.38 and 23.1
same,"PIIINP, Post Baseline",[2]; Post Baseline visit (52 week),17.3 and 15.34 and 15.81 and 23.03 and 12.9 and 25.08 and 27.3
same,"TIMP−1, Post Baseline",[2]; Post Baseline visit (52 week),163.8 and 145.3 and 192 and 181 and 172 and 288.2 and 290.4
